The conditions of data set [1]: cited from earlier work.
A further data set in a line: Particle size by SEM. The format is physicochemical. As to conditions: processed with CO2 at 190 bar, 50° C. and 25° C.
The conditions of data set [2]: coadministration of cyclosporine; J Clin Oncol 2001; cited from earlier work.

Procedure for Particle size by SEM: SEM images at 2 different magnifications, namely 100× (FIG. 11a) and 2510× (FIG. 11b), of fenofibrate processed at 50° C. and 190 are shown in FIG. 11.
SEM images were taken, using a Hitachi S4500 electron microscope. The samples were chromium coated for 60 seconds with a current of 125 mA, with a Emitech E4500 coater.

Regarding `Cc1ccc(C)c(OCCCC(C)(C)C(=O)O)c1` [gemfibrozil, 5-(2,5-dimethylphenoxy)-2,2-dimethylpentanoic acid], the solubility in water entry in data set [1] is on record as “very poorly soluble”. Further, in the data set “Particle size by SEM”, the particle size entry is given as “approximately 5 microns”. `CC(=O)O[C@@]12CO[C@@H]1C[C@H](O)[C@@]1(C)C(=O)[C@H](O)C3=C(C)[C@@H](OC(=O)[C@H](O)[C@@H](NC(=O)OC(C)(C)C)c4ccccc4)C[C@@](O)([C@@H](OC(=O)c4ccccc4)[C@H]21)C3(C)C` [docetaxel]: the bioavailability result in data set [2] is recorded as “strongly enhanced”.

The values are drawn from patent publication US7862751B2, “Formulation of fine particles using liquefield or dense gases” (MAP Pharmaceuticals, Inc., priority 2002, dated 2011).
